Measured values from US8741944B2, “Anti-infective agents against intracellular pathogens” (priority 2007, dated 2014).
Read-outs that look alike come from different tables or passages of the source.

What was measured:
SK-OV-3 (Ovarian Cancer) = assay: NCI DTP tumor cell line screen (SRB), SK-OV-3
Protocol: (§1) For a typical screening experiment, cells are inoculated into 96 well microtiter plates in 100 μL at plating densities ranging from 5,000 to 40,000 cells/well depending on the doubling time of individual cell lines. After cell inoculation, the microtiter plates are incubated at 37° C., 5% CO2, 95% air and 100% relative humidity for 24 h prior to addition of experimental drugs.
(§2) After 24 h, two plates of each cell line are fixed in situ with TCA, to represent a measurement of the cell population for each cell line at the time of drug addition (Tz). Experimental drugs are solubilized in dimethyl sulfoxide at 400-fold the desired final maximum test concentration and stored frozen prior to use. At the time of drug addition, an aliquot of frozen concentrate is thawed and diluted to twice the desired final maximum test concentration with complete medium containing 50 μg/ml gentamicin. Additional four, 10-fold or ½ log serial dilutions are made to provide a total of five drug concentrations plus control. Aliquots of 100 μl of these different drug dilutions are added to the appropriate microtiter wells already containing 100 μl of medium, resulting in the required final drug concentrations.
(§3) Following drug addition, the plates are incubated for an additional 48 h at 37° C., 5% CO2, 95% air, and 100% relative humidity. For adherent cells, the assay is terminated by the addition of cold TCA. Cells are fixed in situ by the gentle addition of 50 μl of cold 50% (w/v) TCA (final concentration, 10% TCA) and incubated for 60 minutes at 4° C. The supernatant is discarded, and the plates are washed five times with tap water and air dried. Sulforhodamine B (SRB) solution (1001) at 0.4% (w/v) in 1% acetic acid is added to each well, and plates are incubated for 10 minutes at room temperature. After staining, unbound dye is removed by washing five times with 1% acetic acid and the plates are air dried. Bound stain is subsequently solubilized with 10 mM trizma base, and the absorbance is read on an automated plate reader at a wavelength of 515 nm. For suspension cells, the methodology is the same except that the assay is terminated by fixing settled cells at the bottom of the wells by gently adding 50 μl of 80% TCA (final concentration, 16% TCA). Using the seven absorbance measurements [time zero, (Tz), control growth, (C), and test growth in the presence of drug at the five concentration levels (Ti)], the percentage growth is calculated at each of the drug concentrations levels. Percentage growth inhibition is calculated as: [(Ti−Tz)/(C−Tz)]×100 for concentrations for which Ti>/=Tz [(Ti−Tz)/Tz]×100 for concentrations for which Ti<Tz
(§4) Three dose response parameters are calculated for each experimental agent. […] The drug concentration resulting in total growth inhibition (TGI) is calculated from Ti=Tz. […] Values are calculated for each of these three parameters if the level of activity is reached; however, if the effect is not reached or is exceeded, the value for that parameter is expressed as greater or less than the maximum or minimum concentration tested.

[1] = tested on: HOP-92 (Non-Small Cell Lung Cancer); assay: NCI DTP tumor cell line screen (SRB), HOP-92
Protocol: as §1, §2, §3, §4

[2] = tested on: NCI-H23 (Non-Small Cell Lung Cancer)
Protocol: as §1, §2, §3, §4

HT29 (Colon Cancer) = assay: NCI DTP tumor cell line screen (SRB), HT29
Protocol: as §1, §2, §3, §4

MCF7 (Breast Cancer) = assay: NCI DTP tumor cell line screen (SRB), MCF7; settings: MCF7
Protocol: as §1, §2, §3, §4

M14 (Melanoma) = assay: NCI DTP tumor cell line screen (SRB), M14
Protocol: as §1, §2, §3, §4

UACC-62 (Melanoma) = assay: NCI DTP tumor cell line screen (SRB), UACC-62
Protocol: as §1, §2, §3, §4

[3] = tested on: sixty human tumor cell lines; assay: NCI DTP sixty human tumor cell line screen (SRB), means over the panel
786-0 (Renal Cancer) = assay: NCI DTP tumor cell line screen (SRB), 786-0
Protocol: as §1, §2, §3, §4

OVCAR-8 (Ovarian Cancer) = assay: NCI DTP tumor cell line screen (SRB), OVCAR-8; settings: OVCAR-8
Protocol: as §1, §2, §3, §4

RXF 393 (Renal Cancer) = assay: NCI DTP tumor cell line screen (SRB), RXF 393; settings: RXF 393
Protocol: as §1, §2, §3, §4

HCT-116 (Colon Cancer) = assay: NCI DTP tumor cell line screen (SRB), HCT-116
Protocol: as §1, §2, §3, §4

TK-10 (Renal Cancer) = assay: NCI DTP tumor cell line screen (SRB), TK-10
Protocol: as §1, §2, §3, §4

SK-MEL-28 (Melanoma) = assay: NCI DTP tumor cell line screen (SRB), SK-MEL-28
Protocol: as §1, §2, §3, §4

HCT-15 (Colon Cancer) = assay: NCI DTP tumor cell line screen (SRB), HCT-15; settings: HCT-15
Protocol: as §1, §2, §3, §4

[4] = tested on: NCI-H460 (Non-Small Cell Lung Cancer)
Protocol: as §1, §2, §3, §4

## NCC(=O)Nc1ccc(-n2nc(C(F)(F)F)cc2-c2ccc3c(ccc4ccccc43)c2)cc1 [Compound 70, 2-Amino-N-{4-[5-(2-phenanthrenyl)-3-(trifluoromethyl)-1H-pyrazol-1-yl]-phenyl}-acetamide]
SK-OV-3 (Ovarian Cancer)
  TGI: 2.96E−06
SK-OV-3 (Ovarian Cancer); Log10 Concentration −4.0
  Mean Optical Densities: 0.302
SK-OV-3 (Ovarian Cancer); Log10 Concentration −5.0
  Mean Optical Densities: 0.083
  Percent Growth: −79%
SK-OV-3 (Ovarian Cancer); Log10 Concentration −6.0
  Mean Optical Densities: 1.262
  Percent Growth: 71%
SK-OV-3 (Ovarian Cancer); Log10 Concentration −7.0
  Mean Optical Densities: 1.597
  Percent Growth: 98%
SK-OV-3 (Ovarian Cancer); Log10 Concentration −8.0
  Mean Optical Densities: 1.514
  Percent Growth: 91%
[1]
  TGI: 3.07E−06
[1]; Log10 Concentration −4.0
  Mean Optical Densities: 0.267
[1]; Log10 Concentration −5.0
  Mean Optical Densities: 0.095
  Percent Growth: −91%
[1]; Log10 Concentration −6.0
  Mean Optical Densities: 1.465
  Percent Growth: 87%
[1]; Log10 Concentration −7.0
  Mean Optical Densities: 1.474
  Percent Growth: 89%
[1]; Log10 Concentration −8.0
  Mean Optical Densities: 1.509
  Percent Growth: 96%
[2]
  TGI: 2.87E−06
[2]; Log10 Concentration −4.0
  Mean Optical Densities: 0.156
[2]; Log10 Concentration −5.0
  Mean Optical Densities: 0.097
  Percent Growth: −79%
[2]; Log10 Concentration −6.0
  Mean Optical Densities: 1.255
  Percent Growth: 67%
[2]; Log10 Concentration −7.0
  Mean Optical Densities: 1.673
  Percent Growth: 102%
[2]; Log10 Concentration −8.0
  Mean Optical Densities: 1.672
  Percent Growth: 101%
HT29 (Colon Cancer)
  TGI: 2.64E−06
HT29 (Colon Cancer); Log10 Concentration −4.0
  Mean Optical Densities: 0.159
HT29 (Colon Cancer); Log10 Concentration −5.0
  Mean Optical Densities: 0.075
  Percent Growth: −65%
HT29 (Colon Cancer); Log10 Concentration −6.0
  Mean Optical Densities: 0.801
  Percent Growth: 47%
HT29 (Colon Cancer); Log10 Concentration −7.0
  Mean Optical Densities: 1.299
  Percent Growth: 88%
HT29 (Colon Cancer); Log10 Concentration −8.0
  Percent Growth: 92%
MCF7 (Breast Cancer)
  TGI: 2.72E−06
MCF7 (Breast Cancer); Log10 Concentration −4.0
  Mean Optical Densities: 0.255
MCF7 (Breast Cancer); Log10 Concentration −5.0
  Mean Optical Densities: 0.196
MCF7 (Breast Cancer); Log10 Concentration −6.0
  Mean Optical Densities: 0.982
MCF7 (Breast Cancer); Log10 Concentration −7.0
  Mean Optical Densities: 1.541
MCF7 (Breast Cancer); Log10 Concentration −8.0
  Mean Optical Densities: 1.566
M14 (Melanoma)
  TGI: 5.37E−06
M14 (Melanoma); Log10 Concentration −4.0
  Mean Optical Densities: 0.256
M14 (Melanoma); Log10 Concentration −5.0
  Mean Optical Densities: 0.211
  Percent Growth: −33%
M14 (Melanoma); Log10 Concentration −6.0
  Mean Optical Densities: 0.916
  Percent Growth: 90%
M14 (Melanoma); Log10 Concentration −7.0
  Mean Optical Densities: 0.974
  Percent Growth: 98%
M14 (Melanoma); Log10 Concentration −8.0
  Mean Optical Densities: 0.975
  Percent Growth: 98%
UACC-62 (Melanoma)
  TGI: 3.15E−06
UACC-62 (Melanoma); Log10 Concentration −4.0
  Mean Optical Densities: 0.364
UACC-62 (Melanoma); Log10 Concentration −5.0
  Mean Optical Densities: 0.137
  Percent Growth: −80%
UACC-62 (Melanoma); Log10 Concentration −6.0
  Mean Optical Densities: 1.407
  Percent Growth: 79%
UACC-62 (Melanoma); Log10 Concentration −7.0
  Mean Optical Densities: 1.546
  Percent Growth: 94%
UACC-62 (Melanoma); Log10 Concentration −8.0
  Mean Optical Densities: 1.649
  Percent Growth: 105%
[3]
  concentration range completely suppressing cell growth in a diverse range of tumor cell lines: 3 to 5 µM
[3]; read-out: mean GI50 among the sixty cell lines, two-day treatment
  GI50: 1200 nM
[3]; two-day treatment
  mean TGI among the sixty cell lines: 3200 nM
786-0 (Renal Cancer)
  TGI: 2.85E−06
786-0 (Renal Cancer); Log10 Concentration −4.0
  Mean Optical Densities: 0.299
786-0 (Renal Cancer); Log10 Concentration −5.0
  Mean Optical Densities: 0.181
  Percent Growth: −72%
786-0 (Renal Cancer); Log10 Concentration −6.0
  Mean Optical Densities: 1.440
  Percent Growth: 60%
786-0 (Renal Cancer); Log10 Concentration −7.0
  Mean Optical Densities: 1.897
  Percent Growth: 95%
786-0 (Renal Cancer); Log10 Concentration −8.0
  Mean Optical Densities: 2.012
  Percent Growth: 104%
OVCAR-8 (Ovarian Cancer)
  TGI: 4.05E−06
OVCAR-8 (Ovarian Cancer); Log10 Concentration −4.0
  Mean Optical Densities: 0.306
OVCAR-8 (Ovarian Cancer); Log10 Concentration −5.0
  Mean Optical Densities: 0.269
  Percent Growth: −33%
OVCAR-8 (Ovarian Cancer); Log10 Concentration −6.0
  Mean Optical Densities: 0.755
  Percent Growth: 51%
OVCAR-8 (Ovarian Cancer); Log10 Concentration −7.0
  Mean Optical Densities: 1.114
  Percent Growth: 102%
OVCAR-8 (Ovarian Cancer); Log10 Concentration −8.0
  Mean Optical Densities: 1.078
  Percent Growth: 97%
RXF 393 (Renal Cancer); Log10 Concentration −4.0
  Mean Optical Densities: 0.441
RXF 393 (Renal Cancer); Log10 Concentration −5.0
  Mean Optical Densities: 0.177
  Percent Growth: −56%
RXF 393 (Renal Cancer); Log10 Concentration −6.0
  Mean Optical Densities: 0.628
  Percent Growth: 56%
RXF 393 (Renal Cancer); Log10 Concentration −7.0
  Mean Optical Densities: 0.700
RXF 393 (Renal Cancer); Log10 Concentration −8.0
  Mean Optical Densities: 0.766
HCT-116 (Colon Cancer); Log10 Concentration −4.0
  Mean Optical Densities: 0.146
HCT-116 (Colon Cancer); Log10 Concentration −5.0
  Mean Optical Densities: 0.104
  Percent Growth: −9%
HCT-116 (Colon Cancer); Log10 Concentration −6.0
  Mean Optical Densities: 0.452
  Percent Growth: 57%
HCT-116 (Colon Cancer); Log10 Concentration −7.0
  Mean Optical Densities: 0.665
  Percent Growth: 93%
HCT-116 (Colon Cancer); Log10 Concentration −8.0
  Mean Optical Densities: 0.751
  Percent Growth: 107%
TK-10 (Renal Cancer)
  TGI: 3.10E−06
TK-10 (Renal Cancer); Log10 Concentration −4.0
  Mean Optical Densities: 0.200
TK-10 (Renal Cancer); Log10 Concentration −5.0
  Mean Optical Densities: 0.138
  Percent Growth: −80%
TK-10 (Renal Cancer); Log10 Concentration −6.0
  Mean Optical Densities: 1.304
  Percent Growth: 77%
TK-10 (Renal Cancer); Log10 Concentration −7.0
  Mean Optical Densities: 1.492
  Percent Growth: 100%
TK-10 (Renal Cancer); Log10 Concentration −8.0
  Mean Optical Densities: 1.512
  Percent Growth: 102%
SK-MEL-28 (Melanoma)
  TGI: 2.64E−06
SK-MEL-28 (Melanoma); Log10 Concentration −4.0
  Mean Optical Densities: 0.218
SK-MEL-28 (Melanoma); Log10 Concentration −5.0
  Mean Optical Densities: 0.071
  Percent Growth: −87%
SK-MEL-28 (Melanoma); Log10 Concentration −6.0
  Mean Optical Densities: 1.130
  Percent Growth: 63%
SK-MEL-28 (Melanoma); Log10 Concentration −7.0
  Mean Optical Densities: 1.320
  Percent Growth: 83%
SK-MEL-28 (Melanoma); Log10 Concentration −8.0
  Mean Optical Densities: 1.426
  Percent Growth: 94%
HCT-15 (Colon Cancer)
  TGI: 3.19E−06
HCT-15 (Colon Cancer); Log10 Concentration −5.0
  Mean Optical Densities: 0.149
  Percent Growth: −47%
HCT-15 (Colon Cancer); Log10 Concentration −6.0
  Mean Optical Densities: 0.561
  Percent Growth: 47%
HCT-15 (Colon Cancer); Log10 Concentration −7.0
  Mean Optical Densities: 0.599
  Percent Growth: 54%
HCT-15 (Colon Cancer); Log10 Concentration −8.0
  Mean Optical Densities: 0.760
  Percent Growth: 81%
[4]
  TGI: 2.64E−06
[4]; Log10 Concentration −4.0
  Mean Optical Densities: 0.213
[4]; Log10 Concentration −5.0
  Mean Optical Densities: 0.173
[4]; Log10 Concentration −6.0
  Mean Optical Densities: 0.830
  Percent Growth: 34%
[4]; Log10 Concentration −7.0
  Mean Optical Densities: 1.499
  Percent Growth: 77%
[4]; Log10 Concentration −8.0
  Mean Optical Densities: 1.799
  Percent Growth: 97%
